Patent US11369611B2, “Therapeutic compounds and uses thereof” (Kala Pharmaceuticals, Inc., priority 2013, dated 2022)

Columns and labels:
[1] = Draize ocular irritation assessment; format: in vivo; details: MPP 0.5%, 50 μL topical BID 5 days, Dutch-belted rabbits
Description: Dutch-belted rabbits were used in these studies.

[2] = Particle size of compounds milled with PLURONIC F127 as MPP (dynamic light scattering); format: physicochemical; details: formulated as MPP, milled with PLURONIC F127, DPBS buffered
Description: The compounds of the present invention synthesized in accordance with the preceding Examples were formulated as mucus penetrating particles (MPP). Specifically, Compound 4 of Example 1, Compound 9 of Example 2, and Compound 13 of Example 3 were each milled in the presence of PLURONIC F127 (F127) to determine whether F127 1) aids particle size reduction to several hundreds of nanometers and 2) physically (non-covalently) coats the surface of generated nanoparticles with a mucoinert coating that would minimize particle interactions with mucus constituents and prevent mucus adhesion.
A milling procedure was employed in which an aqueous dispersion containing coarse drug particles and PLURONIC F127 (F127) was milled with grinding medium until particle size was reduced below 400 nm as measured by dynamic light scattering. Table 4 lists the size of particles and polydispersity index (a measure of the width of the particle size distribution) generated using this technique. In this example suspensions were buffered using DPBS (Dulbecco's Phosphate-Buffered Saline) which yields a suspension that is both isotonic and has a physiologically relevant pH.

SMILES: COc1cc2c(Oc3ccc4[nH]c(C)cc4c3F)ncnc2cc1OCCCN1CCC2(CC1)COC2 [Compound 4, 7-(3-(4-(4-fluoro-2-methyl-1H-indol-5-yloxy)-6-methoxyquinazolin-7-yloxy)propyl)-2-oxa-7-azaspiro[3.5]nonane]
- Draize-Ocular Irritation [1]: no irritation was seen
- Particle Size [2]: 270 nm
